Tested on: Triton WR 1339 induced dyslipidemia in Albino rats (Sprague Dawley strain)
Assay: Hypolipidemic activity of product 3 compared with amla seed powder, Triton WR 1339 model (Example 26)
Format: in vivo, rat
Method: Twenty eight male Albino rats (Sprague Dawley strain) weighing approximately 250-300 gm were selected for the study. The animals were maintained at temperature of 24±2° C., 65% relative humidity and 12 hr light/dark cycle. The rats were acclimatized for two weeks and during this period they had access to standard pellet diet and water ad libitum. After two weeks of acclimatization, all the rats were fasted overnight before injecting Triton WR 1339 (Tyloxapol) and administration of test extracts/standard. The animals were divided into seven groups. Following treatment was given to overnight fasted rats: • Group I: Normal control (vehicle only) • Group II: Triton WR 1339 (300 mg/kg, intraperitoneal) • Group III: Triton WR 1339 (300 mg/kg, intraperitoneal) followed by administering product of amla seed extract (product 3) on the same day of triton administration (0.5 mg/kg, per oral) • Group IV: Triton WR 1339 (300 mg/kg, intraperitoneal) followed by product 2 (50% methanol fraction+80% methanol fraction+water fraction) of amla seed extract on the same day that Triton was administered (0.5 mg/kg, per oral) • Group V: Triton WR 1339 (300 mg/kg, intraperitoneal) followed by product 1 (Hexane fraction) of amla seed extract on the same day that Triton was administered (0.5 mg/kg, per oral) • Group VI: Triton WR 1339 (300 mg/kg, intraperitoneal) followed by powder of dried amla seed prepared as per Example 7 (0.5 mg/kg, per oral). The powder of dried amla seed was administered on the same day as triton was administered. • Group VII: Triton WR 1339 (300 mg/kg, intraperitoneal) followed by atorvastatin administration (10 mg/kg, per oral), on the same day.
The animals were deprived of food for next 24 hours but had free access to water ad libitum. After 24 hours of drug treatment, 2 ml of blood sample was collected from the retro orbital plexus. The blood was allowed to clot and then centrifuged at 3000 rpm for 10 min and the serum was carefully drawn and collected into separate tubes. The serum was analyzed for total cholesterol, triglycerides, high density lipoproteins (HDL), low density lipoproteins (LDL) and very low density lipoproteins (VLDL) levels using auto-analyzer.

[1] = 24 h after Triton i.p. + 10 mg/kg p.o.

Question: For `CC(C)c1c(C(=O)Nc2ccccc2)c(-c2ccccc2)c(-c2ccc(F)cc2)n1CC[C@@H](O)C[C@@H](O)CC(=O)O` [Atorvastatin], which “HDL After” value [1] is on record?
Answer: 38.46 mg/dL

Question: And the “LDL After” value [1]?
Answer: 44.30 mg/dL

Question: What about the “TC After” value [1] of the same compound?
Answer: 121.21 mg/dL

Question: And the “TG After” value [1]?
Answer: 192.25 mg/dL

Question: What about the “VLDL After” value [1] of the same compound?
Answer: 44.30 mg/dL

Question: What about the “HDL Before” value (baseline, 10 mg/kg p.o. group) of the same compound?
Answer: 35.54 mg/dL

Question: And the “LDL Before” value (baseline, 10 mg/kg p.o. group)?
Answer: 58.22 mg/dL

Question: And the “TC Before” value (baseline, 10 mg/kg p.o. group)?
Answer: 103.47 mg/dL

Question: What about the “TG Before” value (baseline, 10 mg/kg p.o. group) of the same compound?
Answer: 48.54 mg/dL

Question: And the “VLDL Before” value (baseline, 10 mg/kg p.o. group)?
Answer: 58.22 mg/dL
